Test results: patent publication US20230330051A1, “METHOD FOR MODULATING WEIGHT” (Yeda Research and Development Co. Ltd., priority 2020, published 2023)

Experiments:
Assay type in all cases: in vivo, C57BL/6J male mice
[1] = Weight change of naive HFD-consuming mice upon metabolite administration; details: naive HFD-consuming 10-week-old C57bl male mice
Source text: Mice. Eight-weeks old C57BL/6J male mice were purchased from Harlan. All mice were maintained in the animal facility of the Weizmann Institute and acclimatized for two weeks before the initiation of experiments. Mice were fed on normal chow (NC) or switched to a high-fat diet (HFD, D12492, 60% kcal from fat, Research Diets)/ choline-deficient diet (CDD, rodent diet with 60 kcal % fat without added Choline) three days prior to the experimental starting point. […] For all experiments, the mice were assigned to each group based on their weight in order to create weight-matched groups and eliminate weight differences at the beginning of the experiments. […] Lean and fat mass was determined by nuclear magnetic resonance (NMR) using Bruker minispec LF50.mq7.5 MHZ live mice analyzer.
(§1) Data extraction and compound identification- raw data was extracted, peak-identified and QC processed using Metabolon's hardware and software. […] The cut was then closed with sterile surgical clips and the mice were carefully monitored for any signs of stress, bleeding, pain, or abnormal behavior. […]
Importantly, the predicted levels of biosynthetic enzymes (PICRUSTt2, P542-PWY) of the choline to betaine pathway and the pathway's measured intermediary levels (Choline to Betaine) were altered in actively smoking mice (FIG. 1D). […]

[2] = Smoking cessation-associated weight gain (SCWG) model in mice
Source text: Mice. Eight-weeks old C57BL/6J male mice were purchased from Harlan. All mice were maintained in the animal facility of the Weizmann Institute and acclimatized for two weeks before the initiation of experiments. Mice were fed on normal chow (NC) or switched to a high-fat diet (HFD, D12492, 60% kcal from fat, Research Diets)/ choline-deficient diet (CDD, rodent diet with 60 kcal % fat without added Choline) three days prior to the experimental starting point. […] For all experiments, the mice were assigned to each group based on their weight in order to create weight-matched groups and eliminate weight differences at the beginning of the experiments. Two weeks before experimental starting point, antibiotic-treated groups were given a combination of vancomycin (0.5 g/l), ampicillin (1 g/l), neomycin (1 g/l), and metronidazole (1 g/l) ad libitum in their drinking water, referred to as 4-way abx. […] Lean and fat mass was determined by nuclear magnetic resonance (NMR) using Bruker minispec LF50.mq7.5 MHZ live mice analyzer.
Cigarette Smoke Exposure. […] Smoke levels were measured at least twice daily. […]
as §1

[3] = Bomb calorimetry of stool (residual caloric content); details: three weeks into DMG or PBS administration; inversely correlates with intestinal energy harvest
Method: Bomb calorimetry. Mice were transferred to a clean single housed cage, fecal samples collected and stored at −80° C. Before use, samples were dried with FreeZone 4.5-liter cascade benchtop freeze dry system (Labconco) for 24 hours. Gross energy content was measured using a water handling system (6510) and a bomb calorimeter (6200) by Parr Instrument Co. The calorimeter energy equivalent factor was determined using benzoic acid standards.

SMILES	Weight gain under ACG consumption ([1]; 7500 mg N-Acetylglycine/kg diet, vs HFD-fed control)	SCWG upon ACG supplementation ([2]; non-antibiotics-treated smoking-cessation mice, HFD-ACG vs HFD)	Weight change upon DMG administration ([1]; osmotic pumps, 100 mg/kg/day, 21 days, vs vehicle (PBS))	SCWG upon DMG supplementation ([2]; antibiotics-treated smoking-cessation HFD-fed mice, DMG via osmotic pumps started prior to cessation, vs vehicle)	Residual caloric content in stool [3]
CC(=O)NCC(=O)O [ACG, N-acetylglycine]	significantly lower weight gain	prevented SCWG			
CN(C)CC(=O)O [DMG, N,N-Dimethylglycine]			significant weight gain	restored SCWG	lower residual calories
